Measured values from paper PMC11910330, “Familial Alzheimer’s disease mutations in amyloid precursor protein impair calcineurin signaling to NMDA receptors” (The Journal of Biological Chemistry, 2024).

System: GluN1A/GluN2A NMDARs
Experiment: Whole-cell recording of glutamate-evoked NMDAR currents in HEK 293 cells expressing GluN1A/GluN2A
Assay type: cell-based
Description: HEK 293 cells (ATCC Cat# CRL-1573) were obtained at passage 37 and used for a maximum of six passages. Cell cultures were maintained in Dulbecco’s modified Eagle’s medium (DMEM) with 10% fetal bovine serum (Life Technologies, Inc.) and penicillin/streptomycin (P/S). For electrophysiology, cells were plated at low density (∼50,000 cells/ml) on 15-mm round glass coverslips in 12-well plates. Cells were transfected using the Ca^2+ phosphate method with 1 μg of each construct per coverslip. For control cells, 0.3 μg of pEGFP (GenBank U55762.1) was included as a transfection marker. Epifluorescence was used to confirm the expression of the corresponding APP family members and APP FAD mutants. For biochemistry, HEK 293 cells were plated at ∼50% confluence on 10 cm dishes. HEK 293 cells were transfected by the Ca^2+ phosphate method. For these experiments, 4 μg of each construct was used, with 1 μg of mCherry (GenBank AY678264.1) used as a transfection marker. Experiments were performed 24 h after transfection.
Twenty-four hours after transfection, HEK 293 cells were visually selected for recording by GFP epifluorescence. […] whole-cell recordings of NMDA receptor currents were obtained with a Multiclamp 700A amplifier (Molecular Devices) and digitized through a Digidata 1332A using Clampex 10.3 software. Patch pipettes (2–5 MΩ for HEK 293 cells; 3–6 MΩ for neurons) contained (in mM) the following: 140 Cs methanesulfonate, 10 Hepes, five ATP (Na salt), 5 MgCl2, and 0.2 EGTA + 0.01 CaCl2 or 10 BAPTA + 0.2 CaCl2 (pH 7.4). QX-314 (2 mM) was included in the pipette solution for neuronal recordings to ensure the block of voltage-gated Na^+ currents. The extracellular solution contained (in mM) 150 NaCl, 5 KCl, 1.8 CaCl2, 10 Hepes, 11.1 glucose, 0.1 glycine (pH 7.4) and flowed at a rate of 1 to 2 ml/min. For neuronal recordings, this solution was supplemented with tetrodotoxin (0.3 μM), NBQX (10 μM), and picrotoxin (100 μM), to block voltage-gated Na^+ channels, AMPA receptors, and GABA receptors, respectively. HEK cells were lifted from the coverslip after establishment of the whole-cell configuration, to speed solution exchange, and placed ∼20 μm from the mouth of a series of flow pipes, which were controlled by solenoid valves and moved into position by a piezoelectric bimorph. With this configuration, solution exchanges were accomplished within 10 to 12 ms as assessed by the rise time (20–80%) of whole-cell agonist-evoked current responses. Flow pipes were lowered to within ∼50 μm of the surface of the coverslip and placed ∼100 to 150 μm from the soma of the cell. Currents were digitized at 2 kHz and filtered at 1 kHz. Series resistance (90–95% HEK cells; 60–70% neurons) and whole-cell capacitance compensation were employed, and input resistance was routinely monitored by 5 mV hyperpolarizing jumps between agonist applications. Cells showing sudden shifts in these parameters were discarded. Experiments were performed at a holding potential of −60 mV at 20 °C. Currents were elicited by a 3 s (5 s for neurons) application of glutamate (1 mM) in the extracellular recording solution. Desensitization was quantified as the ratio of average current remaining in the last 50 ms of the agonist application to the peak current using Clampfit 10.3 software. […] Current density was calculated by dividing the peak current by the compensated whole-cell capacitance.

O=C(O)CN(CC(=O)O)c1ccccc1OCCOc1ccccc1N(CC(=O)O)CC(=O)O [BAPTA] was tested, and the “effect on NMDAR current amplitude (in words)” value (10 mM BAPTA in pipette, APP-expressing cells, within 1–3 min) was “increase in the amplitude of GluN1A/GluN2A currents”, the “effect on NMDAR desensitization (in words)” value (10 mM BAPTA in pipette, GFP controls and APP-expressing cells) was “did not appear to modify the degree of NMDAR desensitization” and the “effect on NMDAR current amplitude (in words)” value (10 mM BAPTA in pipette, GFP-expressing cells) was “declined in amplitude by a similar extent to that seen with low EGTA concentrations”.
With cyclosporin A [CsA] the “effect on NMDAR desensitization (in words)” value (CsA 1 μM, GFP-expressing cells, relative to untreated cells) was “desensitization appeared modestly enhanced” and the “ss/p ratio in APP-expressing cells (in words)” value (CsA 1 μM, low intracellular EGTA) was “no longer different (and modestly elevated) compared to GFP-expressing cells”.
